Data set [1] relates to Escherichia coli O157:H7 (ATCC 35150). In words: Test for bacterial proliferation inhibitory effects (absorbance at 600 nm). The note with it: 37° C., 22 hours; FIG. 5. In kind it is cell-based.
Data set [2] deals with Salmonella typhimurium (ATCC 19586). Described as above. The note with it: 37° C., 22 hours; FIG. 5.
The test system of data set [3] is Escherichia coli O157:H7 (ATCC 35150). Description: Test for apoptotic effects (viable colony count on selective media). The class given is cell-based. The note with it: compared with erythorbic acid and lauric acid; FIG. 4. The protocol: (§1) Apoptotic effects of erythorbic acid, lauric acid, and erythorbyl laurate, which is a […] product of erythorbic acid and lauric acid and a material of interest in this experiment, on two kinds of Gram-negative bacteria and two kinds of Gram-positive bacteria were evaluated.
(§2) As selective media for antibiosis test, sorbitol MacConkey agar (SMAC) (available from Difco), Xylose Lysine Desoxycholate agar (XLD) (available from Difco), Oxford agar base with Bacto™ Oxford antimicrobial supplement (MOX) (available from Difco), and Baird-Parker Agar Base (BPA) (available from Difco) were used.
(§3) As bacterial strains, Escherichia coli O157:H7 (ATCC 35150), Salmonella typhimurium (ATCC 19586), Listeria monocytogenes (ATCC 19114), and Staphylococcus aureus (ATCC 27213) were prepared. Each of the bacterial strains was cultured in tryptic soy broth (Difco, Becton Dickinson, Sparks, Md., USA) for 24 hours at 37° C., centrifuged at 4000×g for 20 minutes at 4° C., and purified with buffered peptone water (BPW) (available from Difco). Each strain was prepared in the form of a bacterial suspension (10^6 CFU/ml).
(§4) For this experiment, first, 10 ml of erythorbic acid, 10 ml of lauric acid, and 10 ml of erythorbyl laurate were added to 0.1 ml of each bacterial suspension. The resulting solution was satisfactorily mixed using a vortex mixer for minutes. Thereafter, 1 ml of the resultant solution obtained by mixing each bacterial suspension and test compounds was mixed with 9 ml of sterilized peptone water. Then, the resulting mixture was diluted 1:10 using sterilized peptone water. 0.1 ml of the diluted solution was collected and plated on the selective media. The plated media were incubated at 37° C. for 24 hours, and then colonies grown in each plate were measured in log10 CFU/ml.

For data set [4], the system named is Listeria monocytogenes (ATCC 19114). The description is as above. In kind it is cell-based. The protocol: as §1, §2, §3, §4
The subject of data set [5] is Salmonella typhimurium (ATCC 19586). The description is as above. In kind it is cell-based. The note with it: compared with erythorbic acid and lauric acid; FIG. 4. The procedure: as §1, §2, §3, §4
Data set [6] relates to Staphylococcus aureus (ATCC 27213). The data set is described as above. The class given is cell-based. The protocol:
as §1, §2, §3, §4

For a further data set, the system named is Staphylococcus aureus. Description: Test for bacterial proliferation inhibitory effects (absorbance at 600 nm). The class given is cell-based. The procedure:
Meanwhile, as a result of examination of proliferation inhibition data of Staphylococcus aureus, a portion where an exponential phase of the bacteria starts was remarkably shown unlike Listeria monocytogenes. Thus, the concentration of erythorbyl laurate was further decreased and a growth curve of the bacteria was measured.

Data set [7] deals with human intestinal epithelial cells INT-407.
Data set [8] has the same test system. Description: Cytotoxicity test (MTT assay, cell viability). The settings on record: FIG. 7.
The test system of another data set is Listeria monocytogenes. In words: Test for bacterial proliferation inhibitory effects (absorbance at 600 nm). The note with it: 37° C., 22 hours; FIG. 5.

Structures are written as SMILES.

In the case of `O=C1O[C@H]([C@H](O)CO)C(O)=C1O` [erythorbic acid], the “bacterial proliferation inhibitory effects” value in data set [1] and in data set [2] was “insignificant bacterial proliferation inhibitory effects” throughout.

On to `CCCCCCCCCCCC(=O)OC[C@@H](O)[C@H]1OC(=O)C(O)=C1O` [erythorbyl laurate], for which the apoptotic effects result is “insignificant” in [3], “excellent apoptotic effects” in data set [4] (FIG. 4), “insignificant” in [5] and “excellent apoptotic effects” in [6] (FIG. 4). In [4] (above concentrations of 200 ppm), the viable cell count is 0.48 CFU/ml. In addition, the “apoptotic effects according to the concentration” value is “apoptotic effects were increased in proportion to increase in the concentration” in data set [4] (up to 200 ppm) and “continuous apoptotic effects” in data set [6] (at a concentration of 200 ppm or higher). Besides, the “bacterial proliferation inhibitory effects” value is listed as “insignificant bacterial proliferation inhibitory effects” in data set [1]; “effective bacterial proliferation inhibitory effects” with Staphylococcus aureus (37° C., 22 hours, FIG. 5); “insignificant bacterial proliferation inhibitory effects” in data set [2]; “effective bacterial proliferation inhibitory effects” in the data set on Listeria monocytogenes. Moreover, in the data set with Staphylococcus aureus (decreasing concentration of erythorbyl laurate, FIG. 6), the “growth curve of the bacteria as the concentration decreased” value is “an induction phase decreased and the exponential phase was observed earlier”. Further, the cytotoxicity result in [7] was “no cytotoxicity”. The “cell viability compared with erythorbic acid” value in data set [8] (50 μM and 200 μM) is on record as “cell viability similar to that when erythorbic acid was used”. In addition, the “cell viability compared with ascorbyl palmitate” value in data set [8] (all the concentrations) is listed as “higher cell viability”.

For `CCCCCCCCCCCC(=O)O` [lauric acid], the “bacterial proliferation inhibitory effects” value in data set [1] and in data set [2] was “insignificant bacterial proliferation inhibitory effects” throughout.

Values taken from patent publication US9000034B2, “Antibiotic composition containing erythorbyl laurate and its usage” (SNU R&DB Foundation, priority 2012, dated 2015).
